Data published in US20240109917A1 (ACTELION PHARMACEUTICALS LTD, priority 2020, published 2024).

Tests used:
[1] = target: His6-TEV-PDGFRβ (557-1016) (Homo sapiens (Human), UniProt P09619); experiment: PDGFRβ HTRF Assay; type: biochemical; details: read-out: PDGFR HTRF IC50
Method in brief: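 HTRF KinEASE-TK readout (665/620 nm ratio) of TK-biotin substrate phosphorylation by His-tagged PDGFRβ kinase domain. Enzyme and inhibitor preincubated 30 min, then ATP/substrate added for 3 h at room temperature before 60 min EDTA quench/detection.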

[2] = target: Tb-labeled inactive PDGFRβ (Homo sapiens (Human), UniProt P09619); experiment: PDGFRβ LanthaScreen Assay; type: binding; details: read-out: PDGFR Lantha IC50
Chain of Tb-labeled inactive PDGFRβ (P09619 33-1106): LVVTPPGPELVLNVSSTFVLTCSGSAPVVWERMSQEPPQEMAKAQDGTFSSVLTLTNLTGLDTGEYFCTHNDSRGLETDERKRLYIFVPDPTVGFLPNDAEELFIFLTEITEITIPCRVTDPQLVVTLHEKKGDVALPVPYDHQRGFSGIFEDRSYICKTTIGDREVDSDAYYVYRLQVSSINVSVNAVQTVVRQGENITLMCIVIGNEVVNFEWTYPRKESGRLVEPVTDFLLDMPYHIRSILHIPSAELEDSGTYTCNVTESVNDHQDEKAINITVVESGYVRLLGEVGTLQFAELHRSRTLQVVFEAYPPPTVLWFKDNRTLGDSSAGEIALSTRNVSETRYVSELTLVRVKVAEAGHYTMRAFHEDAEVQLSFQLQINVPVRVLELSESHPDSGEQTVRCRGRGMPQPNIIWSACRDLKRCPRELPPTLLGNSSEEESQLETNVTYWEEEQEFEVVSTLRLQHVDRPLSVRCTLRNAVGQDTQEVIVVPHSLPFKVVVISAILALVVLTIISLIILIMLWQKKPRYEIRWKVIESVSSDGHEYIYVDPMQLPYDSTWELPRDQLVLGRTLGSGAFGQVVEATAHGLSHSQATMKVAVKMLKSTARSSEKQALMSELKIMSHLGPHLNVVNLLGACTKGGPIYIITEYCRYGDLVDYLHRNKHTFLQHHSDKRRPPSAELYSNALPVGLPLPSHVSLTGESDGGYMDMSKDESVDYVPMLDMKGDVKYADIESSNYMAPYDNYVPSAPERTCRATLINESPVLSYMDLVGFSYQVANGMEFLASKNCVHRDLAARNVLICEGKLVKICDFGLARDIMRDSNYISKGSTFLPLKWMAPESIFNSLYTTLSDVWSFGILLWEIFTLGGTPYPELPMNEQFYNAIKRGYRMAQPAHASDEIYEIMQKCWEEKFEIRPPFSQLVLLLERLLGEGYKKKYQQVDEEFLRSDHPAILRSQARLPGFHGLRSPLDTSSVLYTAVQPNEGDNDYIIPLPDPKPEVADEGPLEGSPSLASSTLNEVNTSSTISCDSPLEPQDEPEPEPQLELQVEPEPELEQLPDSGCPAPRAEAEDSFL

Chain of His6-TEV-PDGFRβ (557-1016) (P09619 557-1016): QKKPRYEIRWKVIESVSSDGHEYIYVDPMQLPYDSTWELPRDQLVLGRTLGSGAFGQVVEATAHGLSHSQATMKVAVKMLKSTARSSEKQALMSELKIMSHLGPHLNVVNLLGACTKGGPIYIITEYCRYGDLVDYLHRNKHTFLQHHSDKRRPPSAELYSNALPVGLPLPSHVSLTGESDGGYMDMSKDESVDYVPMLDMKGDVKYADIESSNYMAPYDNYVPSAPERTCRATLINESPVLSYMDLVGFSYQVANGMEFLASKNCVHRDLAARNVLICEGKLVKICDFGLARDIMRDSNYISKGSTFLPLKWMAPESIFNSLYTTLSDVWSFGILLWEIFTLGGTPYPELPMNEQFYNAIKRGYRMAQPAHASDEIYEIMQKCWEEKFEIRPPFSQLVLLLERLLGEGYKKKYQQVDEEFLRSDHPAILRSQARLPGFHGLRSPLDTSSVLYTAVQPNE

SMILES | IC50 [1] | IC50 [2]
COCCn1cc(-c2cn3ncc(C(=O)Nc4cc(NC(=O)CN5CCC56CCC6)cnc4C)c3s2)cn1 [Example 333, N-(5-(2-(1-azaspiro[3.3]heptan-1-yl)acetamido)-2-methylpyridin-3-yl)-2-(1-(2-methoxyethyl)-1H-pyrazol-4-yl)pyrazolo[5,1-b]thiazole-7-carboxamide] | 0.4 nM | 3.1 nM
COCCn1cc(-c2cn3ncc(C(=O)Nc4cc(NC(=O)CN5C6CCC5CC6)cnc4C)c3s2)cn1 [Example 340, N-(5-(2-(7-azabicyclo[2.2.1]heptan-7-yl)acetamido)-2-methylpyridin-3-yl)-2-(1-(2-methoxyethyl)-1H-pyrazol-4-yl)pyrazolo[5,1-b]thiazole-7-carboxamide] | 0.5 nM | 7.5 nM
Cc1ncc(NC(=O)CN2C[C@H](CO)OC(C)(C)C2)cc1NC(=O)c1cnn2cc(-c3cnn(C)c3)sc12 [Example 376, (R)—N-(5-(2-(6-(hydroxymethyl)-2,2-dimethylmorpholino)acetamido)-2-methylpyridin-3-yl)-2-(1-methyl-1H-pyrazol-4-yl)pyrazolo[5,1-b]thiazole-7-carboxamide] | 0.8 nM | 5.6 nM
COCCn1cc(-c2cn3ncc(C(=O)Nc4cc(NC(=O)C5CCN(C(C)C)C5)cnc4C)c3s2)cn1 (stereo not drawn) [Example 345, N-(5-(1-isopropylpyrrolidine-3-carboxamido)-2-methylpyridin-3-yl)-2-(1-(2-methoxyethyl)-1H-pyrazol-4-yl)pyrazolo[5,1-b]thiazole-7-carboxamide] | 1.3 nM | 56.9 nM
COCCn1cc(-c2cn3ncc(C(=O)Nc4cc(NC(=O)CN5CCCCCC5)cnc4C)c3s2)cn1 [Example 339, N-(5-(2-(azepan-1-yl)acetamido)-2-methylpyridin-3-yl)-2-(1-(2-methoxyethyl)-1H-pyrazol-4-yl)pyrazolo[5,1-b]thiazole-7-carboxamide] | 0.4 nM | 3 nM
COCCn1cc(-c2cn3ncc(C(=O)Nc4cc(NC(=O)CN5CC6CCC5CC6)cnc4C)c3s2)cn1 [Example 331, N-(5-(2-(2-azabicyclo[2.2.2]octan-2-yl)acetamido)-2-methylpyridin-3-yl)-2-(1-(2-methoxyethyl)-1H-pyrazol-4-yl)pyrazolo[5,1-b]thiazole-7-carboxamide] | 0.4 nM | 3.3 nM
